Experimental data reported in the METLIN SMRT retention time set (Domingo-Almenara et al. 2019).

experiment: gradient 5% acetonitrile 3 min, to 50% in 2 min, to 85% in 15 min, held 3 min, 100 µL/min; conditions: column: Zorbax Extend-C18 2.1 x 50 mm; eluents: water / acetonitrile, 0.1% formic acid
In short: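 Retention times come from adduct peaks that were picked computationally and then checked by hand. The standards, pure and pooled in mixtures of ~100 molecules, were run on a Zorbax Extend-C18 column (2.1 × 50 mm, 1.8 μm) at 100 μL/min with water and acetonitrile, each with 0.1% formic acid. Detection was by quadrupole time-of-flight mass spectrometry in positive and negative ionization mode, with a dead volume of 40 μL and a dwell volume of 900 μL.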

SMILES	RP-LC retention time [s]
Cc1cccc(OCc2nc(-c3ccc(-c4csc(C)n4)cc3)no2)c1	1250
Cc1ccc(-n2c(-c3ccc(Cl)cc3)cn3c4c(=O)n(C)c(=O)n(C)c4nc23)cc1C	720
Cn1cc(C(=O)N2CC(c3nc(CCOCC4CCOCC4)no3)C2)cn1	663
CCn1ccc2c(cc(C(=O)Nc3ccc(OC)cc3OC)n2C)c1=O	692
Cn1cc(C(F)(F)F)nc1-c1ccc(OCC(O)CNCCOc2ccc(O)c(C(N)=O)c2)cc1 (centres undefined)	710
O=C(NCCCn1nc(-c2ccc(F)cc2)ccc1=O)c1cccc(-n2cnnn2)c1	683
CC1=NS(=O)(=O)N(Cc2ccccc2)C=C1C(=O)OCc1noc(-c2ccc(C)c(C)c2)n1	1220
Cc1cc(C)cc(NC(=O)Cc2nc(-c3ccccn3)n[nH]2)c1	669
Cc1cc2c(cc1C)N(CC(=O)Nc1ccc(F)cc1F)C(=O)CC(c1cccs1)=N2	1070
CC(C)NC(=O)Cc1cccn1-c1cccc(Cl)c1	870
COc1cc(CC(=O)N2CCc3cc(-c4ccno4)ccc32)cc(OC)c1	921
CNC(=O)c1ccsc1NC(=O)c1cccc(C(F)(F)F)c1	1160
Cc1nc(C2CCOCC2)n(C2CCN(S(=O)(=O)c3ccc(F)cc3F)C2)n1 (centres undefined)	712
Cc1cccc(C)c1NC(=O)Cn1c(=O)n(Cc2ccc(F)cc2)c(=O)c2nccnc21	781
Cn1c(=O)c2nc(S(=O)(=O)CCC(=O)Nc3ccc(Cl)cc3)n(C)c2n(C)c1=O	741
CCOc1cccc(-c2noc(Cn3ccn(-c4ccccc4OC)c(=O)c3=O)n2)c1	863
COC(=O)c1ccc(NC(=O)Cc2csc3nc(-c4ccc(C)c(C)c4)cn23)cc1	849
Cc1nc(-c2noc(-c3ccc(F)cc3)n2)cn1CC(=O)NC(C)c1ccccc1 (centres undefined)	854
COC(=O)c1c(NCc2ccc(F)cc2F)c2cc(F)ccc2[nH]c1=O	769
COc1ccc(Cc2noc(Cc3nnc(-c4cccc(Cl)c4)o3)n2)cc1	1010
COc1cc(NC(=O)Cc2csc3nc(-c4ccccc4)cn23)cc(OC)c1OC	749
Cc1ccc(S(=O)(=O)Nc2cccc(-c3nc4ncccn4c3C)c2)cc1	670

Continued, values first:

RP-LC retention time [s]	SMILES
1140	CCc1sc(NC(=O)c2cc3c([nH]c2=O)CCCC3=O)nc1-c1ccc(Cc2ccccc2)cc1
604	Cc1nc(-c2ccccn2)cc2nn(CC(=O)NCC3CCCO3)c(=O)n12 (centres undefined)
919	Cc1cc(C)cc(N2C(=O)CN(S(C)(=O)=O)CC2(C)C(=O)NCc2ccc(Cl)cc2)c1 (centres undefined)
1110	O=C(NCc1cccs1)c1nc(-c2ccc(N3CCCC3)cc2)no1
691	CCCN1C(=O)C(CC(=O)N2CCCC2)Sc2ncccc21 (centres undefined)
732	O=C(NCc1ccccc1)C1CCCN(c2ncnc3c2nc2n3CCCCC2)C1 (centres undefined)
1130	Cc1nc(C)c(C(=O)N2CC(Oc3ccc(-c4nc(-c5ccccc5)no4)cc3)C2)s1
564	CSc1ccccc1CN1CCC(CNC(=O)c2cc(=O)c3ccccc3o2)CC1
612	CCc1nnc(-c2ccc3ccn(CC(=O)Nc4ccc(CN5CCN(CC)CC5)cc4)c3c2)o1
812	CCOc1ncccc1CNC(=O)CC1CCCC1
940	CCOC(=O)c1cc(S(=O)(=O)N2CCCC2C(=O)Nc2ccc(F)cc2C)cn1C (centres undefined)
891	O=C(Nc1cnn(-c2ncc(N3CCCCC3)cn2)c1)Nc1ccccc1C(F)(F)F
689	Cn1nc(CNC(=O)c2cnccn2)c2ccccc21
626	COc1ccc(OC)c(NC(=O)N2CCC(CN3CCC(C)CC3)CC2)c1
726	O=C(NCc1cccc(Br)c1)C1CCN(c2cnc3nccnc3c2)CC1
806	O=C(CC1CCCCC1)N1CCC(F)(C(=O)N2CCCC2)CC1
1350	Cc1ccc(NC(=O)C2CCCN(c3nc4ccccc4nc3C(F)(F)F)C2)c(Cl)c1 (centres undefined)
576	CNc1nccc(N2CCC(CC(=O)O)CC2)n1
869	CC(=O)Nc1c(C)noc1/C=C/c1ccc(S(=O)(=O)N2CCC(C)CC2)s1
780	O=C(NCc1ccco1)c1ccc(Cn2nc(N3CCN(c4ccccc4)CC3)ccc2=O)o1
799	CCN1c2ccccc2C(=O)NC12CCN(C(=O)c1ccc(F)c(F)c1)CC2
726	O=S(=O)(c1ccc(-c2nnc(C3CCCC3)o2)o1)N1CCN(c2ccccn2)CC1
